Values after ≈ are worked out from the molar mass of the structure shown. Where two headings read alike, the source gives them in different places.
Assays:
HIV-1 RT (WT) = HIV-1 RT (WT) (Human immunodeficiency virus type 1 group M subtype B, UniProt P03366); assay: biochemical
In short: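 Recombinant HIV-1 RT incubated 30 min at 37° C with poly(C).oligo(dG) (0.1 mM) and [³H]dGTP (2.95 μM) in Tris pH 7.8 with 5 mM MgCl2, 150 mM KCl, DTT, glutathione, Triton X-100; 5-fold compound dilutions. Acid-insoluble radioactivity counted after TCA/pyrophosphate precipitation.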

HIV-1/III(0.1) 103-Asn = assay: Sensitivity of mutant HIV-1 strain in CEM cell cultures; type: cell-based; settings: Human immunodeficiency virus 1, CCRF-CEM; Table 5; read-out: EC50
In short: (§1)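 Syncytium formation read out after 4 days at 37° C. Cultures: CEM cells, 250,000/ml, infected at 100 50% cell culture infective doses/ml and added to compound dilutions.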

HIV-1/IV(0.1) 103-Thr = assay: as above; type: cell-based; settings: Human immunodeficiency virus 1, CCRF-CEM; Table 5; read-out: EC50
In short: as §1

HIV-1/V(0.5) 103-Asn = assay: as above; type: cell-based; settings: Human immunodeficiency virus 1, CCRF-CEM; Table 5; read-out: EC50
In short: as §1

[1] = test system: HIV-1/TIBO R82913 (103-Asn); assay: as above; type: cell-based; settings: Human immunodeficiency virus 1, CCRF-CEM; CEM cells, Table 1; read-out: 50% Effective Concentration
In short: as §1

HIV-1/Pyr (181-Cys) = assay: as above; type: cell-based; settings: Human immunodeficiency virus 1, CCRF-CEM; CEM cells, Table 1; read-out: 50% Effective Concentration
In short: as §1

[2] = test system: HIV-1/TSAO-m^3 T (138-Lys); assay: as above; type: cell-based; settings: Human immunodeficiency virus 1, CCRF-CEM; CEM cells, Table 1; read-out: 50% Effective Concentration
In short: as §1

HIV-1/Nev (106-Ala) = assay: as above; type: cell-based; settings: Human immunodeficiency virus 1, CCRF-CEM; CEM cells, Table 1; read-out: 50% Effective Concentration
In short: as §1

[3] = test system: HIV-1/TIBO R82150 (100-Ile); assay: as above; type: cell-based; settings: Human immunodeficiency virus 1, CCRF-CEM; CEM cells, Table 1; read-out: 50% Effective Concentration
In short: as §1

HIV-1/II(0.1) 100-Ile = assay: as above; type: cell-based; settings: Human immunodeficiency virus 1, CCRF-CEM; Table 5; read-out: EC50
In short: as §1

[4] = test system: HIV-1/V(0.1) 101-Ile + 141-Glu; assay: as above; type: cell-based; settings: Human immunodeficiency virus 1, CCRF-CEM; Table 5; read-out: EC50
In short: as §1

HIV-1/I(0.1) 103-Asn = assay: as above; type: cell-based; settings: Human immunodeficiency virus 1, CCRF-CEM; Table 5; read-out: EC50
In short: as §1

HIV-1(IIIB) (WT) = assay: microbe, parasite or virus in culture; type: cell-based; settings: Human immunodeficiency virus 1, IIIB, CCRF-CEM
In short: as §1

HIV-1(IIIB) = assay: Knock-out concentrations: breakthrough of HIV-1(IIIB)-induced cytopathicity in CEM cell cultures; type: cell-based; settings: for activity at 0.1 µg/mL / activity at 0.5 µg/mL / activity at 2.5 µg/mL: Human immunodeficiency virus 1, IIIB, CCRF-CEM, read-out: HIV-1-induced cytopathicity in cell culture; for activity at 0.1 µg/mL: 0.1 μg/ml; for activity at 0.5 µg/mL: 0.5 μg/ml; for activity at 2.5 µg/mL: 2.5 μg/ml
In short: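 CEM cells in RPMI 1640 with 10% FBS infected with HIV-1(IIIB) at ~1000× CCID50, subcultured every 3–4 days into fresh uninfected cells with drug held constant for 10 subcultivations (35 days), then ≥5 drug-free passages. Breakthrough scored by syncytium formation. Combinations used the two lowest single-drug starting concentrations.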

[5] = 936 h, day 39 post infection, compound absent from day 35
[6] = 1008 h, day 42 post infection, compound absent from day 35
[7] = 1104 h, day 46 post infection, compound absent from day 35
[8] = 1176 h, day 49 post infection, compound absent from day 35
[9] = 1272 h, day 53 post infection, compound absent from day 35

Compound: Cc1occc1C(=S)Nc1ccc(Cl)c(C=NOC(C)(C)C)c1 [Compound I]
- IC50 (HIV-1 RT (WT); range stated for the compounds together, poly(C).oligo(dG), 2.95 μM [2,8-3H]dGTP, read-out: IC50 on recombinant HIV-1 RT): 51.3 to 219 nM
- IC50 (HIV-1 RT (WT); substrate [2,8-3H]dGTP 2.95 μM, template poly(rC)oligo(dG), read-out: IC50, anti-HIV-1 RT (WT) activity (converted)): 202 nM
- EC50 (HIV-1/III(0.1) 103-Asn): 0.3 µg/mL (≈ 0.855 µM)
- EC50 (HIV-1/IV(0.1) 103-Thr): 0.6 µg/mL (≈ 1.71 µM)
- EC50 (HIV-1/V(0.5) 103-Asn): 0.73 µg/mL (≈ 2.08 µM)
- EC50 [1]: ≥ 1 µg/mL
- EC50 (HIV-1/Pyr (181-Cys)): 0.075 µg/mL (≈ 0.214 µM)
- EC50 [2]: 0.075 µg/mL (≈ 0.214 µM)
- EC50 (HIV-1/Nev (106-Ala)): 0.13 µg/mL (≈ 0.371 µM)
- EC50 [3]: 0.085 µg/mL (≈ 0.242 µM)
- EC50 (HIV-1/II(0.1) 100-Ile): 1.25 µg/mL (≈ 3.56 µM)
- EC50 [4]: 0.12 µg/mL (≈ 0.342 µM)
- EC50 (HIV-1/I(0.1) 103-Asn): 0.23 µg/mL (≈ 0.656 µM)
- EC50 (HIV-1(IIIB) (WT); CEM cells, Table 1, read-out: 50% Effective Concentration): 0.05 µg/mL (≈ 0.143 µM)
- EC50 (HIV-1(IIIB) (WT); HIV-1 (III8), Table 5, read-out: EC50): 0.01 µg/mL (≈ 0.0285 µM)
- IC50 (HIV-1(IIIB) (WT); range stated for Compounds I-V together, read-out: 50% inhibitory concentration, HIV-1(IIIB) replication in CEM cells): 0.004 to 0.05 µg/mL (≈ 0.0114 to 0.143 µM)
- prevention of virus breakthrough, fold more efficient than BHAP (HIV-1(IIIB)): at least 5 fold
- prevention of virus breakthrough, fold more efficient than nevirapine (HIV-1(IIIB)): ≥ 25 fold
- activity at 0.1 µg/mL (HIV-1(IIIB); 96 h, day 4 post infection): 0%
- activity at 0.5 µg/mL (HIV-1(IIIB); 96 h, day 4 post infection): 0%
- activity at 2.5 µg/mL (HIV-1(IIIB); 96 h, day 4 post infection): 0%
- activity at 0.1 µg/mL (HIV-1(IIIB); 192 h, day 8 post infection): 0%
- activity at 0.5 µg/mL (HIV-1(IIIB); 192 h, day 8 post infection): 0%
- activity at 2.5 µg/mL (HIV-1(IIIB); 192 h, day 8 post infection): 0%
- activity at 0.1 µg/mL (HIV-1(IIIB); 264 h, day 11 post infection): 6.2%
- activity at 0.5 µg/mL (HIV-1(IIIB); 264 h, day 11 post infection): 0%
- activity at 2.5 µg/mL (HIV-1(IIIB); 264 h, day 11 post infection): 0%
- activity at 0.1 µg/mL (HIV-1(IIIB); 336 h, day 14 post infection): 25%
- activity at 0.5 µg/mL (HIV-1(IIIB); 336 h, day 14 post infection): 0%
- activity at 2.5 µg/mL (HIV-1(IIIB); 336 h, day 14 post infection): 0%
- activity at 0.1 µg/mL (HIV-1(IIIB); 408 h, day 17 post infection): 100%
- activity at 0.5 µg/mL (HIV-1(IIIB); 408 h, day 17 post infection): 0%
- activity at 2.5 µg/mL (HIV-1(IIIB); 408 h, day 17 post infection): 0%
- activity at 0.1 µg/mL (HIV-1(IIIB); 504 h, day 21 post infection): 100%
- activity at 0.5 µg/mL (HIV-1(IIIB); 504 h, day 21 post infection): 0%
- activity at 2.5 µg/mL (HIV-1(IIIB); 504 h, day 21 post infection): 0%
- activity at 0.1 µg/mL (HIV-1(IIIB); 600 h, day 25 post infection): 100%
- activity at 0.5 µg/mL (HIV-1(IIIB); 600 h, day 25 post infection): 0%
- activity at 2.5 µg/mL (HIV-1(IIIB); 600 h, day 25 post infection): 0%
- activity at 0.1 µg/mL (HIV-1(IIIB); 672 h, day 28 post infection): 100%
- activity at 0.5 µg/mL (HIV-1(IIIB); 672 h, day 28 post infection): 0%
- activity at 2.5 µg/mL (HIV-1(IIIB); 672 h, day 28 post infection): 0%
- activity at 0.1 µg/mL (HIV-1(IIIB); 768 h, day 32 post infection): 100%
- activity at 0.5 µg/mL (HIV-1(IIIB); 768 h, day 32 post infection): 0%
- activity at 2.5 µg/mL (HIV-1(IIIB); 768 h, day 32 post infection): 0%
- activity at 0.1 µg/mL (HIV-1(IIIB); 840 h, day 35 post infection): 100%
- activity at 0.5 µg/mL (HIV-1(IIIB); 840 h, day 35 post infection): 0%
- activity at 2.5 µg/mL (HIV-1(IIIB); 840 h, day 35 post infection): 0%
- activity at 0.1 µg/mL (HIV-1(IIIB); [5]): 100%
- activity at 0.5 µg/mL (HIV-1(IIIB); [5]): 0%
- activity at 2.5 µg/mL (HIV-1(IIIB); [5]): 0%
- activity at 0.1 µg/mL (HIV-1(IIIB); [6]): 100%
- activity at 0.5 µg/mL (HIV-1(IIIB); [6]): 0%
- activity at 2.5 µg/mL (HIV-1(IIIB); [6]): 0%
- activity at 0.1 µg/mL (HIV-1(IIIB); [7]): 100%
- activity at 0.5 µg/mL (HIV-1(IIIB); [7]): 0%
- activity at 2.5 µg/mL (HIV-1(IIIB); [7]): 0%
- activity at 0.1 µg/mL (HIV-1(IIIB); [8]): 100%
- activity at 0.5 µg/mL (HIV-1(IIIB); [8]): 0%
- activity at 2.5 µg/mL (HIV-1(IIIB); [8]): 0%
- activity at 0.1 µg/mL (HIV-1(IIIB); [9]): 100%
- activity at 0.5 µg/mL (HIV-1(IIIB); [9]): 0%
- activity at 2.5 µg/mL (HIV-1(IIIB); [9]): 0%
- concentration at which virus emerged (virus breakthrough) (HIV-1(IIIB); tested at 0.1, 0.5 and 2.5 μg/ml, 35 days): 0.1 µg/mL

Reference: patent US5968910A, “Compositions containing two or three inhibitors of different HIV reverse transcriptases” (priority 1994, dated 1999)
